Data reported in patent US7560466B2, “Methods of treating or preventing autoimmune diseases with 2,4-pyrimidinediamine compounds” (Rigel Pharmaceuticals, Inc., priority 2003, dated 2009).
Where two headings read alike, the source gives them in different places.

What was measured:
Syk kinase = target: T1, Syk kinase (Homo sapiens, UniProt P43405); test: Syk kinase biochemical fluorescence polarization assay; details: isolated Syk kinase, 11pt, read-out: fp_syk, 11pt
T1 construct: purchased Upstate, Lake Placid N.Y
Description: Many of the 2,4-pyrimidinediamine compounds were tested for the ability to inhibit Syk kinase catalyzed phosphorylation of a peptide substrate in a biochemical fluorescenced polarization assay with isolated Syk kinase. In this experiment, Compounds were diluted to 1% DMSO in kinase buffer (20 mM HEPES, pH 7.4, 5 mM MgCl2, 2 mM MnCl2, 1 mM DTT, 0.1 mg/mL acetylated Bovine Gamma Globulin). Compound in 1% DMSO (0.2% DMSO final) was mixed with ATP/substrate solution at room temperature. Syk kinase (Upstate, Lake Placid N.Y.) was added to a final reaction volume of 20 uL, and the reaction was incubated for 30 minutes at room temperature. […] EDTA (10 mM final)/anti-phosphotyrosine antibody (1× final)/fluorescent phosphopeptide tracer (0.5× final) was added in FP Dilution Buffer to stop the reaction for a total volume of 40 uL according to manufacturer's instructions (PanVera Corporation) The plate was incubated for 30 minutes in the dark at room temperature. Plates were read on a Polarion fluorescence polarization plate reader (Tecan). Data were converted to amount of phosphopeptide present using a calibration curve generated by competition with the phosphopeptide competitor provided in the Tyrosine Kinase Assay Kit, Green (PanVera Corporation).
In Tabe 1, all reported values are IC50s (in μM).

[1] = Plasma concentration in RPA reaction study (satellite / exposure); assay type: in vivo, mouse; details: C57BL/6, mouse, plasma; for concentration at 5 h: pretreatment 1 hr
Description: Pretreatment time, in which the test compounds are administered prior to Ab/Ag challenge, depends on the pharmacokinetic (PK) properties of each individual compound. Four hours after induction of Arthus reaction, mice are euthanized, and tissues are harvested for assessment of edema.
All compounds tested were administered by the oral route.

SMILES | IC50 (Syk kinase) [µM] | concentration at 5 h ([1]; 2 mg/kg oral, read-out: Exposure = Pretreatment Time + 4 hours Plasma Concentration ± SEM) [ng/mL] | concentration at 5 h ([1]; 5 mg/kg oral, read-out: Exposure = Pretreatment Time + 4 hours Plasma Concentration ± SEM) [ng/mL] | concentration at 5 h ([1]; 15 mg/kg oral, read-out: Exposure = Pretreatment Time + 4 hours Plasma Concentration ± SEM) [ng/mL] | concentration at 5.5 h ([1]; 100 mg/kg oral, 90 minutes pretreatment, read-out: Exposure = Pretreatment Time + 4 hours Plasma Concentration ± SEM) [ng/mL] | concentration at 90 min ([1]; 100 mg/kg oral, 90 minutes pretreatment, read-out: Satellite: At time of challenge Plasma Concentration ± SEM) [ng/mL]
Cn1c(N2CCOCC2)nc2cc(Nc3ncc(F)c(Nc4ccc5c(c4)NC(=O)C(C)(C)O5)n3)ccc21 [Compound 944, N4-(2,2-Dimethyl-3-oxo-4H-benz[1,4]oxazin-6-yl)-5-fluoro-N2-[1-methyl-2-(4-morpholino)benzimidazol-5-yl]-2,4-pyrimidinediamine] | < 10 | 4.3 ± 4.2 | 3.5 ± 5.3 | 29.7 ± 25.9 |  | 
COc1c(C)cc(Nc2ncc(F)c(Nc3ccc4c(c3)NC(=O)C(C)(C)O4)n2)cc1Cl [Compound 994] | < 10 |  |  |  | 44.2 ± 8.9 | 78.6 ± 26.4
